Laboratory results as given in patent publication US20050014788A1, “Piperidine derivatives and their use as modulators of chemokine receptor activity (especially ccr5)” (priority 2001, published 2005).
Counter-ions that a name gives are not always drawn.

target: recombinant human CCR5 receptor (Homo sapiens, UniProt P51681); assay: MIP-1α radioligand binding assay (scintillation proximity), CHO cell membranes; settings: Pic50, negative log (base 10) of IC50 (M); displacement of 0.1 nM iodinated MIP-1α; CHO membranes with recombinant human CCR5; average if tested more than once
Experimental: The ability of compounds to inhibit the binding of MIP-1 α was assessed by an in vitro radioligand binding assay. Membranes were prepared from Chinese hamster ovary cells which expressed the recombinant human CCR5 receptor. These membranes were incubated with 0.1 nM iodinated MIP-1α, scintillation proximity beads and various concentrations of the compounds of the invention in 96-well plates. The amount of iodinated MIP-1α bound to the receptor was determined by scintillation counting.
In Table II the results are presented as Pic50 values. […] (that is 1×10^−6 M) gives a Pic50 of 6.

Chain of recombinant human CCR5 receptor (P51681 whole entry): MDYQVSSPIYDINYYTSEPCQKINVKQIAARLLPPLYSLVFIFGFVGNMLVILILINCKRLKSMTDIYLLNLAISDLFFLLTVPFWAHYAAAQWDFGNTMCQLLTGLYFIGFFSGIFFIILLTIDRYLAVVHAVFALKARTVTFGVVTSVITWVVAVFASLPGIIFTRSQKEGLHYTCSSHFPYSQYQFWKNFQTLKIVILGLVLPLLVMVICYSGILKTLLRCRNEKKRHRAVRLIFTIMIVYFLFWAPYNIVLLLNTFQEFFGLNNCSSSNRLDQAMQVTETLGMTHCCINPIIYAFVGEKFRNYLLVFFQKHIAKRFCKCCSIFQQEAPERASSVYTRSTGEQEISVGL

Row | SMILES | IC50 [M]
1 | CCN(C(=O)Cc1ccc(S(C)(=O)=O)cc1)C1CCN(CC[C@H](c2ccc(S(C)(=O)=O)cc2)c2cccc(F)c2)CC1 [compound 51] | 3.72e-10
2 | CCN(C(=O)Cc1ccc(S(C)(=O)=O)cc1)C1CCN(CC[C@@H](c2ccccc2)c2ccc(S(C)(=O)=O)cc2)CC1 [Compound No. 50, (S)-N-[1-{3-phenyl-3-(4-methanesulfonylphenyl)propyl}-4-piperidinyl]-N-ethyl-4 methanesulfonylphenylacetamide] | 8.13e-10
3 | CCN(C(=O)Cc1ccc(S(C)(=O)=O)cc1)C1CCN(CC[C@H](c2ccc(S(C)(=O)=O)cc2)c2ccc(F)c(F)c2)CC1 [Compound No. 54, (R)-N-[1-{3-(3,4-fluorophenyl)-3-(4-methanesulfonylphenyl)propyl}-4-piperidinyl]-N-ethyl-4-methanesulfonylphenylacetamide hydrochloride] | 2.14e-08

same assay, conditions: negative log (base 10) of IC50 (M); displacement of 0.1 nM iodinated MIP-1α; CHO membranes with recombinant human CCR5; average if tested more than once

Row | SMILES | Pic50
4 | CCN(C(=O)Cc1ccc(S(C)(=O)=O)cc1)C1CCN(CCC(c2ccc(NC(=O)OC(C)(C)C)cc2)c2cccc(F)c2)CC1 (stereo not shown) [Compound No. 43, N-[1-(3-[3-fluorophenyl]-3-[4-Boc-aminophenyl]propyl)-piperidin-4-yl]-N-ethyl-4-methanesulfonylphenylacetamide] | 7.05

same assay, conditions: negative log (base 10) of IC50 (M); displacement of 0.1 nM iodinated MIP-1α; CHO membranes with recombinant human CCR5; average if tested more than once; read-out: Pic50 (converted)

Row | SMILES | IC50 [M]
5 | CCN(C(=O)Cc1ccc(S(C)(=O)=O)cc1)C1CCN(CCC(c2ccc(N)cc2)c2cccc(F)c2)CC1 (stereo not shown) [Compound No. 44, N-[1-(3-[3-fluorophenyl]-3-[4-aminophenyl]propyl)-piperidin-4-yl]-N-ethyl-4-methanesulfonylphenylacetamide hydrochloride] | 1.05e-07
6 | CCN(C(=O)Cc1ccc(S(C)(=O)=O)cc1)C1CCN(CCC(c2ccccc2)c2ccc(SC)cc2)CC1 (stereo not shown) [Compound No. 41, N-[1-(3-phenyl-3-[4-methanethiophenyl]propyl)-piperidin-4-yl]-N-ethyl-4-methanesulfonylphenylacetamide] | 1.17e-08
7 | CCN(C(=O)Cc1ccc(S(C)(=O)=O)cc1)C1CCN(CCC(c2ccccc2)c2ccc(NS(=O)(=O)c3ccccc3)cc2)CC1 (stereo not shown) [compound 28] | 8.51e-07
8 | CCN(C(=O)Cc1ccc(S(C)(=O)=O)cc1)C1CCN(CCC(c2ccc(NC(C)=O)cc2)c2cccc(F)c2)CC1 (stereo not shown) [compound 45] | 3.63e-09
9 | CCN(C(=O)Cc1ccc(S(C)(=O)=O)cc1)C1CCN(CCC(c2ccc(NS(C)(=O)=O)cc2)c2cccc(F)c2)CC1 (stereo not shown) [compound 46] | 9.12e-09
10 | CCN(C(=O)Cc1ccc(S(C)(=O)=O)cc1)C1CCN(CCC(c2ccc(NS(C)(=O)=O)cc2)c2cccc(F)c2)CC1 (stereo not shown) [Compound No. 49] | 6.17e-09
11 | CCN(C(=O)Cc1ccc(S(C)(=O)=O)cc1)C1CCN(CCC(c2ccccc2)c2ccc([S+](C)[O-])cc2)CC1 (stereo not shown) [compound 75] | 1.38e-08
12 | CCN(C(=O)Cc1ccc(S(C)(=O)=O)cc1)C1CCN(CCC(c2ccc(NC(=O)c3ccc(S(C)(=O)=O)cc3)cc2)c2cccc(F)c2)CC1 (stereo not shown) [compound 47] | 3.47e-08
13 | CCN(C(=O)Cc1ccc(S(C)(=O)=O)cc1)C1CCN(CCC(c2ccccc2)c2ccc(NC(=O)NC(C)C)cc2)CC1 (stereo not shown) [compound 42] | 1.32e-08
